According to patent publication US6833372B2, “Non-peptide GnRH agents, Pharmaceutical compositions, and methods for their use” (Pfizer, Inc., priority 2002, dated 2004):
Converted amounts (≈) assume the structure as drawn. Like-named read-outs stand apart in the source and are kept apart here.

Assays:
[1] = biological target: T1, GGH3 cells (GH3 cells stably transfected with the rat GnRH receptor) (Rattus norvegicus, UniProt P30969); assay: Effect of compounds on 125I-GnRH-A binding to GGH3 cells (competition radioligand binding, whole cells); settings: on ice 2 hr
T1 construct: host or cells: GH3 cells stably transfected (GGH3), whole cells
T1 sequence (P30969 1-327): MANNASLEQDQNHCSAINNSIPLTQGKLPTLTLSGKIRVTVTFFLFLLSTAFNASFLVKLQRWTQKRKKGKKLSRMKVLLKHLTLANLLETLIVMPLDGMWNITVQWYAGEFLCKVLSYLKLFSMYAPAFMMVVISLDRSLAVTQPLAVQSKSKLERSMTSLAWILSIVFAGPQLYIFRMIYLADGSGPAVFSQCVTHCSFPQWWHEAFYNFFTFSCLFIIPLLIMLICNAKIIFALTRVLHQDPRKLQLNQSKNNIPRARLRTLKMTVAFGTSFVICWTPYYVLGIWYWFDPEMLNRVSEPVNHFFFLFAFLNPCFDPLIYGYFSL
Description: Cell Culture. GGH3 cells (Dr. William Chin, Harvard Medical School, Boston, Mass.) are grown in low glucose Dulbecco's modified Eagle's medium (DMEM) containing 100 U/mL penicillin/streptomycin, 0.6 g/L G418 and 10% heat-inactivated FBS.
The reaction mixture is vortexed and incubated for 1 min at room temperature. Two; ml of 0.5 M acetic acid is added to the reaction tube and the mixture is added to a C18 Sep-Pak cartridge: The cartridge is washed with subsequent washes of 5 ml H2O and 5 ml 0.5M acetic acid and then eluted with 5×1 ml of 60% CH3CN/40% 0.5M acetic acid. The eluate is diluted with 3× volume of HPLC buffer A (0.1% TFA in H2O) and loaded onto a C18 column. The iodinated product is eluted over 20-25 min with a gradient of 25-100% CH3CN containing 0.1% TFA. The radioactive fractions (750 μl/fraction) are collected into clean polypropylene tubes containing 100 μl of 10% BSA. Fractions are assessed for biological activity by radioligand binding.
Reactions are performed on ice for 2 hr and stopped by the addition of 2 ml of ice-cold PBS wash buffer (50 mM NaPO4, 0.9% NaCl, 2 mM MgCl2, and 0.02% NaN3, pH 7.4) and rapid filtration onto GF/C filters presoaked with 0.05% polyethylenimine utilizing a Brandel cell harvester. Filters are counted on a gamma counter. […]

[2] = In vitro metabolism: disappearance of parent compound in dog liver microsomes; format: in vitro ADME; settings: 5 uM compound, 30 minutes 37° C.
Summary of the method: (§1)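 Microsomes from human, rat (male, female), dog and monkey liver incubated with 5 uM compound, 0.5 mg/ml protein and 2 mM NADPH in 50 mM K phosphate, pH 7.4, for 30 min at 37° C. Reaction stopped with acetonitrile; parent compound remaining measured by LC-MS.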

[3] = In vitro metabolism: disappearance of parent compound in human liver microsomes; format: in vitro ADME; settings: 5 uM compound, 0.5 mg/ml protein, 2 mM NADPH, 30 minutes 37° C.
Summary of the method: as §1

rat GnRH receptor = biological target: T2, rat GnRH receptor (Rattus norvegicus, UniProt P30969); assay: Radioligand binding: inhibition of 125I-GnRH-A binding to rat GnRH receptor (rat pituitary membranes); settings: read-out: Ki (nM), Inhibition Binding of 125I-GnRH-A to GnRH Receptors
T2 construct: or rat pituitaries (Pel Freez Biologicals, Rogers, Ark.) were homogenized; tissue Pel Freez Biologicals; host or cells: rat pituitaries (membrane preparation)
T2 sequence (P30969 1-327): T1 sequence (P30969 1-327)
Summary of the method: (§2)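 Membranes from rat pituitaries, or HEK 293 cells stably expressing mouse or human receptor, incubated 1 hour at room temperature with ~0.04-0.06 nM radioligand (HEPES pH 7.4, EDTA, MgCl2, BSA) and competitor at 0.1-10,000 nM. Bound ligand collected by GF/C filtration and counted; Ki derived from IC50 by Cheng-Prusoff.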

Rat plasma % remain = format: in vitro ADME
human GnRH receptors = biological target: T3, human GnRH receptors (Homo sapiens, UniProt P30968); assay: Radioligand binding: inhibition of 125I-GnRH-A binding to human GnRH receptor membranes; settings: HEK 293 cell membranes
T3 construct: expressed in transfected cells; host or cells: HEK 293 cells, stably transfected; membranes
T3 sequence (P30968 1-328): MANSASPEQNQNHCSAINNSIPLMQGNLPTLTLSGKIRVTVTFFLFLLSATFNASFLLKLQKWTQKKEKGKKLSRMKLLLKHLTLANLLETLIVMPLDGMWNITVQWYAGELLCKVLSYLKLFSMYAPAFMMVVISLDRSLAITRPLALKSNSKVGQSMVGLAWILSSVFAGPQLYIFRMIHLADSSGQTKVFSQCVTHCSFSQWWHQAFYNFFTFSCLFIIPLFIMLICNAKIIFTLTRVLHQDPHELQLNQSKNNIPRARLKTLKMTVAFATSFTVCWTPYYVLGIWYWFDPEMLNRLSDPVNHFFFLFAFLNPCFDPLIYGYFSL
Summary of the method: as §2

mouse GnRH receptors = biological target: T4, mouse GnRH receptors (Mus musculus, UniProt Q01776); assay: Radioligand binding: inhibition of 125I-GnRH-A binding to mouse GnRH receptor membranes; settings: HEK 293 cell membranes
T4 construct: expressed in transfected cells; host or cells: HEK 293 cells, stably transfected; membranes
T4 sequence (Q01776 1-327): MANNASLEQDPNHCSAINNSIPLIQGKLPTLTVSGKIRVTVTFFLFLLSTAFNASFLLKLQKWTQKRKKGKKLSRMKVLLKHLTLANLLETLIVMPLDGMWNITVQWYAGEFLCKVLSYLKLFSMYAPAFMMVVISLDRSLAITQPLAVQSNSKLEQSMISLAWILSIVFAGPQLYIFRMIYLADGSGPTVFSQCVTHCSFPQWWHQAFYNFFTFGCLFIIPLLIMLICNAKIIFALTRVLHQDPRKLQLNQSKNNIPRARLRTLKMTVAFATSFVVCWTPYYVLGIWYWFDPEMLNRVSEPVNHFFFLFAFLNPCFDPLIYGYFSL
Description: HEK 293 cells stably transfected with mouse or human GnRH receptors as described above were grown in Dulbecco's high-glucose, modified Eagle's medium (DMEM) supplemented with 0.2% G418, 10% fetal bovine serum (FBS) and 100 U/mL penicillin/streptomycin. GH3 cells stably transfected with the rat GnRH receptor (GGH3) were provided by Dr. William Chin (Harvard Medical School, Boston, Mass.). These cells have been extensively characterized previously (Kaiser et al., 1997). The cells were grown in low glucose DMEM containing: 100U/mL penicillin/streptomycin, 0.6% G418 and 10% heat-inactivated FBS.
HEK 293 cells containing mouse or human receptors, or rat pituitaries (Pel Freez Biologicals, Rogers, Ark.) were homogenized in buffer A containing: 50 mM Tris (pH 7.4), 0.32 M sucrose, 2 mM EGTA, 1 mM PMSF, 5 μg/ml aprotinen, 5 μg/ml Pepstatin A, and 1 μg/ml leupeptin. Homogenized cells were centrifuged at 4° C. at 20,000×g for 25 minutes, re-suspended in buffer A and re-centrifuged at 4° C. at 20,000×g for an additional 25 minutes. Total membrane protein was determined with a BCA kit (Pierce, Rockford, Ill.). Membranes were stored at −70° C. at a final membrane protein concentration of approximately 5 mg/ml.
The radioiodinated agonist analog of GnRH, [des-Gly^10,D-Ala^6]GnRH ethylamide (^125I-GnRH-A), was used as the radioligand. […] The reaction mixture was vortexed and incubated for 1 minute at room temperature. After one minute, the mixture was vortexed and allowed to incubate for an additional minute. 2 ml of 0.5 M acetic acid/1% BSA was added to the reaction tube and the mixture was added to a C18 Sep-Pak cartridge. The cartridge was washed with subsequent washes of 5 ml H2O and 5 ml 0.5 M acetic acid and then eluted with 5×1 ml of 60% CH3CN/40% 0.5 M acetic acid. The eluate was diluted with 3× volume of HPLC buffer A (0.1% TFA in H2O) and loaded onto a C18 column. The iodinated product was eluted over 20-25 min with a gradient of 25-100% CH3CN containing 0.1% TFA. The radioactive fractions (750 μl/fraction) were collected into clean polypropylene tubes containing 100 μl of 10% BSA. Fractions were assessed for biological activity by radioligand binding. Specific activity of the radioligand was approximately 2200 Ci/mmol.
Membranes were diluted to 0.01-0.5 mg/ml (depending upon the species of receptor) with assay buffer containing 50 mM HEPES (pH 7.4), 1 mM EDTA, 2.5 mM MgCl2, and 0.1% BSA. Membranes (diluted to utilize similar receptor numbers between assays) were incubated with approximately 0.04-0.06 nM ^125I-GnRH-A in the presence or absence of competing agents (0.1-10,000 nM) in a total volume of 200 μl in 96-well polypropylene plates for 1 hour at room temperature. Assays were stopped by rapid filtration onto 96-well GF/C filters soaked in 0.1% polyethylenimine (PEI) utilizing a Packard 96-well cell harvester. Filters were washed three times with ice-cold PBS (50 mM NaPO4, 0.9% NaCl, 2 mM MgCl2, and 0.02% NaN3, pH 7.4). 35 μl of scintillation cocktail was added to each filter well and filters were counted on a Packard Topcount. Control dose-response curves were generated to GnRH (0.1 nM-100 nM) in each competition binding experiment. Ki values were calculated from IC50 values according to Cheng et al., Biochemical Pharmacol. 22: 3099-3108, 1973. [formula]

[4] = Solubility at pH2 and pH6; format: physicochemical
[5] = In vitro metabolism: disappearance of parent compound in monkey liver microsomes; format: in vitro ADME; settings: 5 uM compound, 30 minutes 37° C.
Summary of the method: as §1

[6] = In vitro metabolism: disappearance of parent compound in rat liver microsomes (male, female); format: in vitro ADME; settings: 5 uM compound, 30 minutes 37° C.
Summary of the method: as §1

| Compound | ability to inhibit 125I-GnRH-A binding to GGH3 cells [1] | Dog % rem. 30′ [2] | Human % rem. 30′ [3] | Ki (rat GnRH receptor) | Rat plasma % remain (Rat plasma % remain) | Ki (human GnRH receptors) | Ki (mouse GnRH receptors) | solubility ([4]; pH 2, simulated gastric fluid, pH2, read-out: Solubility μg/ml pH2) | solubility ([4]; pH 6, aqueous buffer, pH6, read-out: Solubility μg/ml pH6) | Monkey % rem. [5] | Fem. Rat (FR) % rem. 30′ ([6]; female rat liver microsomes) | Male Rat (MR) % rem. 30′ ([6]; male rat liver microsomes) |
| --- | --- | --- | --- | --- | --- | --- | --- | --- | --- | --- | --- | --- |
| pGlu-His-Trp-Ser-Tyr-Gly-Leu-Arg-Pro-Gly-NH2 [GnRH] | blocked |  |  |  |  |  |  |  |  |  |  |  |
| CNc1nc(OC)c(NC(=O)c2ccc(Cc3cc4c(cc3C)C(C)(C)CCC4(C)C)o2)c(OC)n1 [Example B1, 5-(3,5,5,8,8-Pentamethyl-5,6,7,8-tetrahydro-naphthalen-2-ylmethyl)-furan-2-carboxylic Acid (4,6-dimethoxy-2-methylamino-pyrimidin-5-yl)-amide] |  | 2% | 54% | 0.79 nM | 100% | 1 nM | 0.75 nM | 1.2 µg/mL (≈ 2.44 µM) | 0.4 µg/mL (≈ 0.812 µM) | 0% | 94% | 1% |
| Ac-D-2-Nal-p-chloro-D-Phe-β-(3-pyridyl)-D-Ala-Ser-Lys(nicotinoyl)-D-Lys(nicotinoyl)-Leu-Lys(isopropyl)-Pro-D-Ala-NH2 [Antide] | blocked |  |  |  |  |  |  |  |  |  |  |  |
